Results published in patent US9579322B2, “Methods for treating neurologic disorders” (EIP Pharma, LLC, priority 2014, dated 2017).

Assays:
[1] = cited from earlier work
[2] = test system: sensory-motor recovery after tMCAO; experiment: Transient MCAO in rats, functional recovery; assay type: in vivo, Sprague-Dawley rats; conditions: for change in cylinder test performance from day 7 to day 35: relative to vehicle; for functional recovery, 7-point neuroscore / functional recovery, 20-point neuroscore / functional recovery, limb placing: day 3 to day 42, versus vehicle
Method: The objective of this study was to investigate whether chronic twice-a-day treatment with VX-745 started at 48 hours post-occlusion provides sensory-motor recovery and neuroprotection in rats subjected to 120 min middle cerebral artery occlusion (tMCAO) at day 0. Seven and 20-point Neuroscore tests were performed to study sensory-motor deficits and general condition on days 1, 3, 7, 14, 21, 28, 35 and 42 post-ischemia. Cylinder test was performed on days 7, 14, 21 and 35 post-ischemia and limb-placing tests on days 1, 3, 7, 14, 21, 28, 35 and 42. Infarct volume was evaluated by T2-MRI at 24 h post-ischemia and rats were allocated to treatment groups based on the lesion data on day 2 and treatment was started after MRI on day 2. Methods—Male Sprague-Dawley rats were subjected to twice-a-day chronic treatment with VX-745 starting at 48 h after 120 min tMCAO. Lesion size was measured at 24 h with MRI and rats were allocated to dosing groups on day 2 (tMCAO performed on day 0) based on lesion size and limb placing results. Rats were treated with 2 different doses and underwent sensorimotor behavioral test throughout the experiment. Seven and 20-point Neuroscore and limb placing tests were performed to study sensory-motor deficits and general condition before occlusion and on days 1, 3, 7, 14, 21, 28, 35 and 42 post-ischemia. Cylinder test was performed before occlusion and on days 7, 14, 21 and 35 post-ischemia. Animals. Altogether 45 adult male Sprague Dawley rats, purchased from Charles River Laboratories (Sulzfeld, Germany), and weighing 250-300 g were used for the experiment. Animals were housed at a standard temperature (22±1° C.) and in a light-controlled environment (lights on from 7 am to 8 pm) with ad libitum access to food and water. • Group A: 15 tMCAO animals treated twice-a-day with vehicle from day 2 to 42 (5 ml/kg, p.o) • Group B: 15 tMCAO animals treated twice-a-day with VX-745 from day 2 to 42 (1.5 mg/kg, p.o). • Group C: 15 tMCAO animals treated twice-a-day with VX-745 from day 2 to 42 (4.5 mg/kg, p.o). Transient MCAO Transient focal cerebral ischemia was produced by MCA occlusion at Day 0 in male Sprague-Dawley rats according to Koizumi with modifications (Koizumi et al. Jpn. J. Stroke 8:1-8, 1986). The rats were anesthetized with 5% isoflurane (in 70% N2O and 30% O2; flow 300 ml/min). During the operation the concentration of anesthetic was reduced to 1.0-2.0%. The rectal temperature was maintained at 37.0±1.0° C. with a homeothermic blanket system. After midline skin incision, the right common carotid artery (CCA) was exposed, and the external carotid artery (ECA) was ligated distal from the carotid bifurcation. A 0.22-mm diameter monofilament nylon thread, with blunted tip, was inserted 22-23 mm into the internal carotid artery (ICA) up to the origin of MCA. After the monofilament insertion, CCA was occluded for 2 hours with a suture. After 120 min of ischemia, the MCA blood flow was restored by removal of the filament and the suture. The wound was closed, disinfected, and the animals were allowed to recover from anesthesia. The rats were carefully monitored for possible post-surgical complications after the tMCAO. The rats were fed with standard laboratory diet suspended in tap water after the tMCAO. To prevent dehydration all rats were given an i.p. injection of saline (4 mL per rat) once or twice-a-day as needed. Drug Delivery. VX-745 or vehicle was administered p.o. (5 ml/kg) starting after MRI at 48 h post-ischemia (i.e. Day 2) and continued twice-a day (morning and afternoon) until endpoint day 42. MRI acquisitions in vivo for all rats were performed at 24 h after tMCAO (i.e. […] Rats were allocated to treatment groups on day 2 based on the lesion data and treatment was started on day 2. A 20-point Neuroscore test was used to assess post-ischemic motor and behavioral deficits. The neurological test was conducted by a blinded investigator at pre-stroke (baseline) and on days 1, 3, 7, 14, 21, 28, 35 and 42 post-ischemia. […]

For VX-745, the “blood brain barrier penetration” value ([1]; animals) is listed as “known to penetrate the blood brain barrier (BBB)”, the “brain concentrations relative to plasma” value ([1]; brain versus plasma) is listed as 1.7 times and the “change in cylinder test performance from day 7 to day 35” value ([2]; 1.5 mg/kg p.o. twice-a-day) is listed as “a trend (p=0.088, two-sided t-test) towards increased improvement”. The “functional recovery, 7-point neuroscore” value ([2]; 1.5 mg/kg) was “not further improve functional recovery”, the “functional recovery, 20-point neuroscore” value ([2]; 1.5 mg/kg) was “not further improve functional recovery” and the “functional recovery, limb placing” value ([2]; 1.5 mg/kg) was “not further improve functional recovery”. The “change in cylinder test performance from day 7 to day 35” value ([2]; 4.5 mg/kg p.o. twice-a-day) was “not evident”, the “functional recovery, 7-point neuroscore” value ([2]; 4.5 mg/kg) was “not further improve functional recovery” and the “functional recovery, 20-point neuroscore” value ([2]; 4.5 mg/kg) was “not further improve functional recovery”. For the same substance, the “functional recovery, limb placing” value ([2]; 4.5 mg/kg) was “not further improve functional recovery” and the “functional recovery, 1.5 mg/kg group compared with 4.5 mg/kg group” value ([2]; all measures, change analysis) was “consistently better”.
